Results reported in the supplement of paper PMC4862054.

Tests used:
Test in all cases: normalised response (% of control), CellTiter-Glo; higher = more viable cells (100 = DMSO, 0 = benzethonium chloride kill control)
Settings in all cases: incubation time: 72 h
BT-474 = tested on: BT-474
Procedure, shortened: (§1)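 For each plate, 0.1 % DMSO was set to 100 and a positive kill control to 0. Breast cancer cell lines (20 µl suspension) were seeded into 384-well plates already holding compound at 5 concentrations in 10-fold steps over a 10,000-fold range chosen per compound, and incubated for 72 h. CellTox Green fluorescence at 485/520 nm was read before CellTiter-Glo luminescence, which followed 10 min at room temperature. Each value is the normalised signal at one concentration.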

BT-549 = tested on: BT-549
Procedure, shortened: as §1

CAL-120 = tested on: CAL-120
Procedure, shortened: as §1

CAL-148 = tested on: CAL-148
Procedure, shortened: as §1

CAL-51 = tested on: CAL-51
Procedure, shortened: as §1

CAL-85-1 = tested on: CAL-85-1
Procedure, shortened: as §1

DU-4475 = tested on: DU-4475
Procedure, shortened: as §1

HCC1143 = tested on: HCC1143
Procedure, shortened: as §1

HCC1599 = tested on: HCC1599
Procedure, shortened: as §1

HCC1937 = tested on: HCC1937
Procedure, shortened: as §1

HDQ-P1 = tested on: HDQ-P1
Procedure, shortened: as §1

Hs578T = tested on: Hs578T
Procedure, shortened: as §1

MCF-10A = tested on: MCF-10A
Procedure, shortened: as §1

MDA-MB-231 = tested on: MDA-MB-231
Procedure, shortened: as §1

MDA-MB-436 = tested on: MDA-MB-436
Procedure, shortened: as §1

MDA-MB-453 = tested on: MDA-MB-453
Procedure, shortened: as §1

MDA-MB-468 = tested on: MDA-MB-468
Procedure, shortened: as §1

MFM-223 = tested on: MFM-223
Procedure, shortened: as §1

SK-BR-3 = tested on: SK-BR-3
Procedure, shortened: as §1

Row | SMILES | normalised response (BT-474) [%] | normalised response (BT-549) [%] | normalised response (CAL-120) [%] | normalised response (CAL-148) [%] | normalised response (CAL-51) [%] | normalised response (CAL-85-1) [%] | normalised response (DU-4475) [%] | normalised response (HCC1143) [%] | normalised response (HCC1599) [%] | normalised response (HCC1937) [%] | normalised response (HDQ-P1) [%] | normalised response (Hs578T) [%] | normalised response (MCF-10A) [%] | normalised response (MDA-MB-231) [%] | normalised response (MDA-MB-436) [%] | normalised response (MDA-MB-453) [%] | normalised response (MDA-MB-468) [%] | normalised response (MFM-223) [%] | normalised response (SK-BR-3) [%]
1 | Cc1ccc(C(=O)N(CCCN)[C@@H](c2oc3cc(Cl)ccc3c(=O)c2Cc2ccccc2)C(C)C)cc1 (0.01 nM) | 95.3 | 104 | 96.6 | 91.8 | 81.7 | 93.8 | 96.6 | 102 | 112 | 102 | 103 | 97.8 | 97.8 | 99 | 97.3 | 101 | 93 | 92.1 | 93.1
2 | O=C(O)c1ccc(-c2c[nH]c3ncc(-c4ccccc4)cc23)cc1C1CCCC1 (1 nM) | 95.4 | 103 | 94.8 | 96.5 | 125 | 98.4 | 97.3 | 97.5 | 83.8 | 91.1 | 93.7 | 98.3 | 89.7 | 94.2 | 92.8 | 99.3 | 92.9 | 94.5 | 89.6
3 | O=C(O)c1ccc(-c2c[nH]c3ncc(-c4ccccc4)cc23)cc1C1CCCC1 (10 nM) | 91.8 | 98.7 | 95.3 | 90.4 | 105 | 96.3 | 99.2 | 102 | 108 | 101 | 95.9 | 99.6 | 95.9 | 94 | 95.1 | 91.8 | 96 | 94 | –
4 | NC(=O)Nc1cc(-c2cccc(F)c2)sc1C(=O)N[C@H]1CCCNC1 [AZD7762] (0.1 nM) | 105 | 105 | 105 | 102 | 77 | 98.4 | 108 | 98.4 | 89.9 | 94.3 | 106 | 99.2 | 98.2 | 105 | 97.5 | 99.9 | 100 | 109 | 105
5 | NC(=O)Nc1cc(-c2cccc(F)c2)sc1C(=O)N[C@H]1CCCNC1 [AZD7762] (1 nM) | 114 | 95.6 | 99.7 | 102 | 95.7 | 98.5 | 104 | 103 | 95.7 | 98.7 | 91.2 | 101 | 103 | 103 | 106 | 94.1 | 102 | 102 | 105
6 | CO[C@H]1/C=C\C=C(/C)C(=O)NC2=CC(=O)C(NCCN(C)C)=C(C[C@@H](C)C[C@H](OC)[C@H](O)[C@@H](C)/C=C(\C)[C@@H]1OC(N)=O)C2=O [Alvespimycin] (1 nM) | 120 | 95.6 | 100 | 112 | 112 | 97.8 | 105 | 97.5 | 102 | 91.6 | 102 | 101 | 106 | 102 | 104 | 113 | 107 | 105 | 105
7 | CN(C)/N=N/c1[nH]cnc1C(N)=O [Dacarbazine] (10 nM) | 105 | 101 | 98.3 | 102 | 103 | 102 | 101 | 103 | 85.9 | 96.3 | 101 | 105 | 101 | 104 | 101 | 111 | 106 | 104 | –
8 | COc1cc2ncnc(Nc3ccc(F)c(Cl)c3)c2cc1NC(=O)/C=C/CN1CCCCC1 [Dacomitinib] (1 nM) | 103 | 99.8 | 100 | 112 | 108 | 91.2 | 100 | 106 | 102 | 94.3 | 90.7 | 105 | 97.7 | 101 | 97.8 | 93.8 | 103 | 101 | –
9 | Cc1ccc(-n2nc(C(C)(C)C)cc2NC(=O)Nc2ccc(OCCN3CCOCC3)c3ccccc23)cc1 [Doramapimod] (10 nM) | 93.5 | 99.3 | 94.5 | 80.3 | 121 | 96 | 98.3 | 98.3 | 103 | 91.7 | 95.5 | 101 | 90.7 | 96.3 | 98.1 | 85.8 | 94 | 89.5 | –
10 | C#Cc1cccc(Nc2ncnc3cc(OCCOC)c(OCCOC)cc23)c1 [Erlotinib] (10 nM) | 99.9 | 97.3 | 102 | 113 | 74.3 | 102 | 105 | 106 | 101 | 96 | 91.7 | 110 | 98.8 | 103 | 103 | 107 | 105 | 111 | –
11 | COc1cc([C@@H]2c3cc4c(cc3[C@@H](O[C@@H]3O[C@@H]5CO[C@@H](C)O[C@H]5[C@H](O)[C@H]3O)[C@H]3COC(=O)[C@H]23)OCO4)cc(OC)c1O [Etoposide] (10 nM) | 103 | 97.8 | 103 | 106 | 98.9 | 102 | 104 | 107 | 99.7 | 103 | 99.3 | 104 | 113 | 105 | 106 | 109 | 98.6 | 109 | –
12 | CC(C)Cn1cnc2c(N)nc3ccccc3c21 [Imiquimod] (2.5 nM) | 104 | 95 | 103 | 107 | 114 | 98.4 | 109 | 103 | 113 | 96.2 | 97.2 | 111 | 105 | 103 | 95.8 | 104 | 104 | 105 | –
13 | Cn1c(Nc2ccc(C(F)(F)F)cc2)nc2cc(Oc3ccnc(-c4ncc(C(F)(F)F)[nH]4)c3)ccc21 [RAF265] (1 nM) | 106 | 96.7 | 104 | 112 | 111 | 104 | 109 | 109 | 102 | 103 | 100 | 105 | 112 | 98.5 | 105 | 127 | 104 | 114 | –
14 | CS(=O)(=O)c1ccc(C2=C(c3ccccc3)C(=O)OC2)cc1 [Rofecoxib] (10 nM) | 103 | 89.7 | 102 | 115 | 73 | 102 | 105 | 106 | 89 | 104 | 102 | 114 | 107 | 102 | 102 | 110 | 104 | 113 | –
15 | CNCc1ccc(-c2[nH]c3cc(F)cc4c3c2CCNC4=O)cc1 [Rucaparib] (10 nM) | 93.6 | 96.9 | 94.2 | 82.7 | 112 | 98.9 | 98.3 | 100 | 102 | 102 | 96.8 | 98.5 | 98.4 | 97.2 | 99.5 | 93.9 | 92.3 | 93.5 | –
16 | CCC(C)(C)C(=O)O[C@H]1C[C@@H](C)C=C2C=C[C@H](C)[C@H](CC[C@@H]3C[C@@H](O)CC(=O)O3)[C@H]21 [Simvastatin] (1 nM) | – | 98.9 | 100 | 102 | 114 | 96.8 | 102 | 102 | 111 | 103 | 98.5 | 103 | 107 | 94.8 | – | 106 | 100 | – | 105
17 | CCC(C)(C)C(=O)O[C@H]1C[C@@H](C)C=C2C=C[C@H](C)[C@H](CC[C@@H]3C[C@@H](O)CC(=O)O3)[C@H]21 [Simvastatin] (10 nM) | – | – | 96 | 103 | 115 | 96.2 | 104 | 98.7 | – | – | 103 | 96.3 | 108 | 99.2 | 98.1 | 98.3 | 103 | 102 | –
18 | CN(N=O)C(=O)N[C@@H](C=O)[C@@H](O)[C@H](O)[C@H](O)CO [Streptozocin] (10 nM) | 109 | – | 100 | 108 | 77.4 | 98.9 | 106 | 105 | – | 109 | 102 | 104 | 105 | 104 | 98.1 | 106 | 114 | 108 | 102
19 | CN[C@@H]1C[C@H]2O[C@@](C)([C@@H]1OC)n1c3ccccc3c3c4c(c5c6ccccc6n2c5c31)C(=O)N[C@H]4O [UCN-01] (10 nM) | 83.8 | 98.4 | 80.2 | 108 | 106 | 95.1 | 101 | 95.9 | 94 | 94.3 | 96.6 | 92.4 | 90.5 | 81.1 | 106 | 91.8 | 97.3 | 102 | –
20 | Clc1ccc(Nc2nnc(Cc3ccncc3)c3ccccc23)cc1 [Vatalanib] (10 nM) | 105 | 95 | 96 | 109 | 127 | 100 | 106 | 102 | 89.6 | 102 | 102 | 100 | 105 | 104 | 107 | 104 | 102 | 102 | –
21 | CCC1=C[C@@H]2CN(C1)Cc1c([nH]c3ccccc13)[C@@](C(=O)OC)(c1cc3c(cc1OC)N(C)[C@H]1[C@@](O)(C(=O)OC)[C@H](OC(C)=O)[C@]4(CC)C=CCN5CC[C@]31[C@@H]54)C2 [Vinorelbine] (10 nM) | 99.3 | 97.6 | 96.6 | 107 | 87.5 | 98.1 | 101 | 97.5 | 84.7 | 99.1 | 99.4 | 101 | 102 | 101 | 94.4 | 80.7 | 95.8 | 106 | –
